Laboratory results: patent publication US8772235B2, “Compounds having peptides conjugated to bone targeting moieties and methods of making and using thereof” (The Governors of the University of Alberta, priority 2009, dated 2014)

Assays:
[1] = Circular dichroism, secondary structure of sCT, sCT-SMCC and sCT-BP; assay type: physicochemical; settings: 20 mM acetate buffer pH 5.0, 400 μg/mL sCT or equivalent
Protocol: For a more detailed analysis of the influence of BP coupling on secondary structural confirmation of sCT, the circular dichroism (CD) spectrum of sCT, sCT-SMCC and sCT-BP was measured in the 20 mM acetate buffer pH 5.0. CD spectra were obtained with a ConvCD spectrophotometer instrument. Spectra were acquired over a wavelength range of 190 to 260 nm. The N2 flow rate was set at 5 l/min. The sample cuvette was cleaned with 20 mM Sodium Acetate buffer pH 5, and the spectra of test samples, which comprised of 400 μg/mL of sCT or equivalent the same buffer, were recorded with the corresponding buffer serving as blanks.

[2] = Effect on plasma calcium level in normal rats (SMCC series); assay type: in vivo, rat; settings: 20 IU sCT/kg equivalent, subcutaneous
Protocol: (§1) Pharmacodynamic response of sCT analogue was evaluated by analyzing plasma calcium concentration in the rat model. Sprague Dawley female rats weighing 230-260 g (about 6 weeks old) were purchased from Charles River, USA and housed at the University of Alberta Animal Holding Unit. All experimental protocols were approved by the Animals Ethics Committee of the University of Alberta. The rats were divided randomly into five groups of 3 animals each and the pharmacodynamic response was assessed following subcutaneous administration of the sCT or analogue equivalent to 20 IU sCT/kg body weight. Rats were anesthetized using Isoflurane inhalation anesthesia and the 200 μl blood samples were obtained in heparinized Eppendorf microtubes before drug injection. Then 100 μl of sCT or equivalent dose in 20 mM Sodium Acetate buffer pH 5 was sub cu injected and the blood samples were collected 1, 2, 3 and 4 hrs post injection from jugular vein. Blood plasma was obtained by centrifuging the samples at 5000 rpm for 10 min and collecting the supernatant. Plasma calcium level was assayed by QuantiChrom™ Calcium Assay Kit (BioAssay Systems, CA USA) and the plasma phosphate level was assayed by QuantiChrom™ Phosphate Assay Kit (BioAssay Systems, CA USA).

[3] = Effect on plasma phosphate level in normal rats (SMCC series); assay type: in vivo, rat; settings: 20 IU sCT/kg equivalent, subcutaneous
Protocol: as §1

[4] = first hour, vs acetate buffer controls

sCT-BP: sCT-SMCC coupled with Thiol-BP (thiol bisphosphonate); mixture of sCT-2SMCC-1BP to sCT-3SMCC-3BP
secondary structure by CD spectrum [1]: strong 6-helical character
percentage of plasma calcium reduction ([2]; 4 hour post dosing): 27.36±2.28%
percentage of plasma calcium reduction [2, 4]: 13.45±1.64%
percentage of plasma calcium reduction ([2]; second hour): 12.47±5.09%
percentage of plasma calcium reduction ([2]; third hour): 26.62±5.28%
percentage of plasma phosphate reduction ([3]; 4 hour post dosing): 8.54±5.11%
percentage of plasma phosphate reduction [3, 4]: 7.65±4.73%
percentage of plasma phosphate reduction ([3]; second hour): 12.47±5.09%

sCT-SMCC: sCT reacted with sulfo-SMCC: mono-, di- and tri-substituted thiol reactive sCT intermediates
secondary structure by CD spectrum [1]: increased peak intensity at 222 nm
percentage of plasma calcium reduction ([2]; 4 hour post dosing): 28.05±2.08%
percentage of plasma calcium reduction [2, 4]: 15.27±2.35%
percentage of plasma calcium reduction ([2]; second hour): 19.43±2.32%
percentage of plasma calcium reduction ([2]; third hour): 24.48±2.83%
percentage of plasma phosphate reduction ([3]; 4 hour post dosing): 10.4±0.54%
percentage of plasma phosphate reduction [3, 4]: 9.18±1.87%
percentage of plasma phosphate reduction ([3]; second hour): 12.18±2.03%
